Source: patent US12195482B1 (Arcus Biosciences, Inc., priority 2022, dated 2025)
pIC50: −log10 of the molar value.

How the values were obtained:
[1] = biological target: T1, recombinant human MER (Homo sapiens, UniProt Q12866); assay: Biochemical potency, HTRF KinEASE-TK kinase assay; conditions: 1 nM MER, 700 μM ATP
T1 construct: purchased Invitrogen
T1 sequence (Q12866 21-999): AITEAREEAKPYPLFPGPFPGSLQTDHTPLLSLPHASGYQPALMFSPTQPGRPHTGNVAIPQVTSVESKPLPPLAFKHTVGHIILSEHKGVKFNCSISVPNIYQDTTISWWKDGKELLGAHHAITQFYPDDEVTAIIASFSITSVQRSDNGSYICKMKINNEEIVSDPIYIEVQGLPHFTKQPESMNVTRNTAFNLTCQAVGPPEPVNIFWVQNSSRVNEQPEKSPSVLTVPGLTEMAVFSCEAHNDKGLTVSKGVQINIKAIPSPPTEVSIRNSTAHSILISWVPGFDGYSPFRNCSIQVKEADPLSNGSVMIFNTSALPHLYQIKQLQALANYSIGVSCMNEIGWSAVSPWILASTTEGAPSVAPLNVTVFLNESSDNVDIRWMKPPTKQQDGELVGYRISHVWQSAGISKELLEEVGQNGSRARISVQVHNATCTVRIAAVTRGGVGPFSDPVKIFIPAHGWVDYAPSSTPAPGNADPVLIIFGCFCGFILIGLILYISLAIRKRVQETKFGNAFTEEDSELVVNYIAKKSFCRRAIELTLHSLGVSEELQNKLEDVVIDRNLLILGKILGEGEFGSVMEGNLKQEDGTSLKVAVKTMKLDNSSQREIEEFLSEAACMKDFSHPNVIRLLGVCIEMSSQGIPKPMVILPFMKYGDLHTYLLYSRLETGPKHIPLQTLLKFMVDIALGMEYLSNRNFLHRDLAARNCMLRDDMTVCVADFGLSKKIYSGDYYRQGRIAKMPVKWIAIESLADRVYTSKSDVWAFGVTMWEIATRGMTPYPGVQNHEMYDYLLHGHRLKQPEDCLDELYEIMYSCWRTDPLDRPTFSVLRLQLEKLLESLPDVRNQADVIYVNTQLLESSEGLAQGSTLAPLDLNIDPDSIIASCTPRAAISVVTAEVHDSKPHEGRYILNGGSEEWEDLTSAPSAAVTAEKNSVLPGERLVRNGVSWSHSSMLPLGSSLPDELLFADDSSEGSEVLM
Method in brief: (§1)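 Enzyme (AXL 5 nM; TYRO3 or MER 1 nM final) was preincubated with compound for 1 h at RT, then reacted for 2 h at RT with 800 nM biotinylated TK substrate and 700 µM ATP in HEPES pH 7.4, MgCl2, DTT, BSA, 1% DMSO. Percent activity came from the HTRF 665/620 ratio.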

[2] = biological target: T2, recombinant human TYRO3 (Homo sapiens, UniProt Q06418); assay: Biochemical potency, HTRF KinEASE-TK kinase assay; conditions: 1 nM TYRO3, 700 μM ATP
T2 construct: purchased Invitrogen
T2 sequence (Q06418 41-890): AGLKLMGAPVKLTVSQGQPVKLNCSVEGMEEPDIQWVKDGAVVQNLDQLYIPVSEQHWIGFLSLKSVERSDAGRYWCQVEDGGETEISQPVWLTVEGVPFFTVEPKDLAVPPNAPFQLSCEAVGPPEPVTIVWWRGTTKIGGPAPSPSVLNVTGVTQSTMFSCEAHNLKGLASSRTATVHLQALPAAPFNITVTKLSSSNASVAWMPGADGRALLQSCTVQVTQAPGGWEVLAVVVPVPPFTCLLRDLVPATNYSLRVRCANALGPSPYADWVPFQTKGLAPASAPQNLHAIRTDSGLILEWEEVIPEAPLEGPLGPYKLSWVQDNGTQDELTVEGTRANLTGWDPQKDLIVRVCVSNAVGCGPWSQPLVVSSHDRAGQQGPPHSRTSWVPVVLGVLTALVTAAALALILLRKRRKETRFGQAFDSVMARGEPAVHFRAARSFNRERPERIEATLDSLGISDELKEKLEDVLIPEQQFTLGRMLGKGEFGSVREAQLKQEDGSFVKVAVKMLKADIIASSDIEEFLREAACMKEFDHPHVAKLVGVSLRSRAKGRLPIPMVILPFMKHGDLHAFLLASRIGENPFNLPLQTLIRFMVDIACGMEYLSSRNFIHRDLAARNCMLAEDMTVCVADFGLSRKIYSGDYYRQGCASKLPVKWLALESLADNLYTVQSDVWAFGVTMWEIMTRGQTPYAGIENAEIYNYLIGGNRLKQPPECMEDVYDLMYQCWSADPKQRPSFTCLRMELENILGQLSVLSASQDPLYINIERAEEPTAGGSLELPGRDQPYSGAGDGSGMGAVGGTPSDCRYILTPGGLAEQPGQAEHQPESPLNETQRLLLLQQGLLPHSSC
Method in brief: as §1

pIC50 [1]	pIC50 [2]	Compound
6.00 to 7.00	6.00 to 7.00	Cc1nccnc1-c1ccc(-c2c[nH]c3ncc(-c4ccc5c(c4)CC[C@@H](N4C6COCC4C6)CC5)cc23)cc1 [Example 48, 6-[(7S)-2-{3-[4-(3-Methylpyrazin-2-yl)phenyl]-1H-pyrrolo[2,3-b]pyridin-5-yl}-6,7,8,9-tetrahydro-5H-benzo[7]annulen-7-yl]-3-oxa-6-azabicyclo[3.1.1]heptane]
6.00 to 7.00	> 7.00	Cc1cc(C)c(-c2ccc(-c3n[nH]c4ncc(-c5ccc6c(c5)CC[C@@H](N5C7COCC5C7)CC6)cc34)cc2)nn1 [Example 77, 6-[(7S)-2-{3-[4-(4,6-Dimethylpyridazin-3-yl)phenyl]-1H-pyrazolo[3,4-b]pyridin-5-yl}-6,7,8,9-tetrahydro-5H-benzo[7]annulen-7-yl]-3-oxa-6-azabicyclo[3.1.1]heptane]
> 7.00	> 7.00	COCCOc1cccnc1-c1ccc(-c2c[nH]c3ncc(-c4ccc5c(c4)CC[C@@H](N4C6COCC4C6)CC5)cc23)cc1 [Example 3, 6-[(7S)-2-(3-{4-[3-(2-Methoxyethoxy)pyridin-2-yl]phenyl}-1H-pyrrolo[2,3-b]pyridin-5-yl)-6,7,8,9-tetrahydro-5H-benzo[7]annulen-7-yl]-3-oxa-6-azabicyclo[3.1.1]heptane]
6.00 to 7.00	6.00 to 7.00	C[C@@H]1CCCN1[C@@]1(C)CCc2ccc(-c3cnc4[nH]nc(-c5ccc(-c6ncco6)cc5)c4c3)cc2CC1 [Example 90, 2-(4-{5-[(7S)-7-Methyl-7-[(2R)-2-methylpyrrolidin-1-yl]-6,7,8,9-tetrahydro-5H-benzo[7]annulen-2-yl]-2H-pyrazolo[3,4-b]pyridin-3-yl}phenyl)-1,3-oxazole]
6.00 to 7.00	6.00 to 7.00	CS(=O)(=O)c1ccccc1-c1ccc(-c2c[nH]c3ncc(-c4ccc5c(c4)CC[C@@H](N4C6COCC4C6)CC5)cc23)cc1 [Example 93, 6-[(7S)-2-(3-{2′-Methanesulfonyl-[1,1′-biphenyl]-4-yl}-1H-pyrrolo[2,3-b]pyridin-5-yl)-6,7,8,9-tetrahydro-5H-benzo[7]annulen-7-yl]-3-oxa-6-azabicyclo[3.1.1]heptane]
> 7.00	6.00 to 7.00	Cc1cc(C)c(-c2ccc(-c3c[nH]c4ncc(-c5ccc6c(c5)CC[C@@H](N5C7COCC5C7)CC6)cc34)cc2)nn1 [Example 80, 6-[(7S)-2-{3-[4-(4,6-Dimethylpyridazin-3-yl)phenyl]-1H-pyrrolo[2,3-b]pyridin-5-yl}-6,7,8,9-tetrahydro-5H-benzo[7]annulen-7-yl]-3-oxa-6-azabicyclo[3.1.1]heptane]
< 6.00	< 6.00	c1cncc(-c2ccc(-c3n[nH]c4ncc(-c5ccc6c(c5)CC[C@@H](N5C7COCC5C7)CC6)cc34)cc2)c1 [Example 157, 6-[(7S)-2-{3-[4-(Pyridin-3-yl)phenyl]-2H-pyrazolo[3,4-b]pyridin-5-yl}-6,7,8,9-tetrahydro-5H-benzo[7]annulen-7-yl]-3-oxa-6-azabicyclo[3.1.1]heptane]
6.00 to 7.00	6.00 to 7.00	Cc1cnc(C)c(-c2ccc(-c3c[nH]c4ncc(-c5ccc6c(c5)CC[C@@](C)(N5CCC[C@H]5C)CC6)cc34)cc2)n1 [Example 58, 2,5-Dimethyl-3-(4-{5-[(7S)-7-methyl-7-[(2R)-2-methylpyrrolidin-1-yl]-6,7,8,9-tetrahydro-5H-benzo[7]annulen-2-yl]-1H-pyrrolo[2,3-b]pyridin-3-yl}phenyl)pyrazine]
6.00 to 7.00	6.00 to 7.00	Clc1cccnc1-c1ccc(-c2c[nH]c3ncc(-c4ccc5c(c4)CC[C@@H](N4C6COCC4C6)CC5)cc23)cc1 [Example 43, 6-[(7S)-2-{3-[4-(3-Chloropyridin-2-yl)phenyl]-1H-pyrrolo[2,3-b]pyridin-5-yl}-6,7,8,9-tetrahydro-5H-benzo[7]annulen-7-yl]-3-oxa-6-azabicyclo[3.1.1]heptane]
6.00 to 7.00	6.00 to 7.00	Clc1cc(-c2c[nH]c3ncc(-c4ccc5c(c4)CC[C@@H](N4C6COCC4C6)CC5)cc23)ccc1-c1ccccn1 [Example 44, 6-[(7S)-2-{3-[3-Chloro-4-(pyridin-2-yl)phenyl]-1H-pyrrolo[2,3-b]pyridin-5-yl}-6,7,8,9-tetrahydro-5H-benzo[7]annulen-7-yl]-3-oxa-6-azabicyclo[3.1.1]heptane]
> 7.00	> 7.00	Cc1ccnnc1-c1ccc(-c2c[nH]c3ncc(-c4ccc5c(c4)CC[C@@H](N4C6COCC4C6)CC5)cc23)cc1 [Example 49, 6-[(7S)-2-{3-[4-(4-Methylpyridazin-3-yl)phenyl]-1H-pyrrolo[2,3-b]pyridin-5-yl}-6,7,8,9-tetrahydro-5H-benzo[7]annulen-7-yl]-3-oxa-6-azabicyclo[3.1.1]heptane]
6.00 to 7.00	6.00 to 7.00	COc1cc(-c2n[nH]c3ncc(-c4ccc5c(c4)CC[C@@H](N4C6COCC4C6)CC5)cc23)ccc1-c1ccccn1 [Example 160, 6-[(7S)-2-{3-[3-Methoxy-4-(pyridin-2-yl)phenyl]-2H-pyrazolo[3,4-b]pyridin-5-yl}-6,7,8,9-tetrahydro-5H-benzo[7]annulen-7-yl]-3-oxa-6-azabicyclo[3.1.1]heptane]
< 6.00	6.00 to 7.00	Cc1nccnc1-c1ccc(-c2c[nH]c3ncc(-c4ccc5c(c4)CC[C@@H](N4C6COCC4C6)CC5)cc23)nc1 [Example 54, 6-[(7S)-2-{3-[5-(3-Methylpyrazin-2-yl)pyridin-2-yl]-1H-pyrrolo[2,3-b]pyridin-5-yl}-6,7,8,9-tetrahydro-5H-benzo[7]annulen-7-yl]-3-oxa-6-azabicyclo[3.1.1]heptane]
6.00 to 7.00	6.00 to 7.00	FC(F)(F)c1cccnc1-c1ccc(-c2n[nH]c3ncc(-c4ccc5c(c4)CC[C@@H](N4C6COCC4C6)CC5)cc23)cc1 [Example 88, 6-[(7S)-3-[3-[4-[3-(Trifluoromethyl)pyridin-2-yl]phenyl]-1H-pyrazolo[3,4-b]pyridin-5-yl]-6,7,8,9-tetrahydro-5H-benzo[7]annulen-7-yl]-3-oxa-6-azabicyclo[3.1.1]heptane]
6.00 to 7.00	6.00 to 7.00	c1ccc(-c2ccc(-c3c[nH]c4ncc(-c5ccc6c(c5)CC[C@@H](N5C[C@@H]7C[C@H]5CO7)CC6)cc34)cc2)nc1 [Example 33, (1S,4S)-5-[(7S)-3-[3-(4-Pyridin-2-ylphenyl)-1H-pyrrolo[2,3-b]pyridin-5-yl]-6,7,8,9-tetrahydro-5H-benzo[7]annulen-7-yl]-2-oxa-5-azabicyclo[2.2.1]heptane]
6.00 to 7.00	> 7.00	Cc1cccnc1-c1ccc(-c2n[nH]c3ncc(-c4ccc5c(c4)CC[C@@H](N4C6COCC4C6)CC5)cc23)cc1 [Example 2, 6-[(7S)-2-{3-[4-(3-Methylpyridin-2-yl)phenyl]-2H-pyrazolo[3,4-b]pyridin-5-yl}-6,7,8,9-tetrahydro-5H-benzo[7]annulen-7-yl]-3-oxa-6-azabicyclo[3.1.1]heptane]
